One series has as its target T1, human EST enzyme (Homo sapiens, UniProt P49888).
T1 sequence (P49888 1-294): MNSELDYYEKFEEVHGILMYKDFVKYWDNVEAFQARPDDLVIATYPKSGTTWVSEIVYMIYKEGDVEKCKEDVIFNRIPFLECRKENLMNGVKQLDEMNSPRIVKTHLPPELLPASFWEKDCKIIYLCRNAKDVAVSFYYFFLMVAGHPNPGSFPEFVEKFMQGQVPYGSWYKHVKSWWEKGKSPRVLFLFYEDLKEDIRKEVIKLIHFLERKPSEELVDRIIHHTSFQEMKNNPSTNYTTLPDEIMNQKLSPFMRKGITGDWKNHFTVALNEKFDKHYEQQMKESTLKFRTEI
As to the kind of experiment: Preferred substrate and optimal assay conditions for recombinant human EST enzyme. The format is biochemical.

Series [1] addresses T2, recombinant human liver EST enzyme (Homo sapiens, UniProt P49888).
T2 sequence (P49888 1-294): T1 sequence (P49888 1-294)
To be noted: 150 mM NaCl; substrate estrone. An excerpt: Estrone was used as the substrate to determine optimal assay conditions and, subsequently, to characterize the properties of human EST enzyme. […] Mg^2+ is known to increase the activities of several ST enzymes (J. S. Hernandez et al., Drug Metab. Dispos., 20, 413-422 (1992); I. A. Aksoy et al., Druc, Metab. Dispos., 21, 268-276 (1993)).

For series [2], the target named is T3, recombinant human liver DHEA ST enzyme (Homo sapiens, UniProt Q06520).
T3 sequence (Q06520 1-285): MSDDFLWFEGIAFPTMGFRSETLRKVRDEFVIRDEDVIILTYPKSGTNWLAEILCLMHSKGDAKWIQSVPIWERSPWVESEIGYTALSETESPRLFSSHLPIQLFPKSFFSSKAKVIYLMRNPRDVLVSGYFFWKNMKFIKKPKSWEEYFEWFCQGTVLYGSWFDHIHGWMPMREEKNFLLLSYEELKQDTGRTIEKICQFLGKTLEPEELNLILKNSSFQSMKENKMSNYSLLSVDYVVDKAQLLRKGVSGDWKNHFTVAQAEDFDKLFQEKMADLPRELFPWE
To be noted: 75 mM NaCl; substrate DHEA.
Protocol: The previously described EST and DHEA ST activity assays were used to measure ST activities of recombinant human liver EST enzyme and DHEA ST enzyme, respectively, wherein NaCl concentration in the reaction mixture was made 0.6 to 150 mM by the addition of 5 μL of a concentrated aqueous NaCl solution prior to incubation.

In series [3] the target is T2, recombinant human liver EST enzyme. Nature of the series: Substrate kinetics (apparent Km), COS-1 expressed EST enzyme. Also on record: made in house; host or cells: COS-1 (ATCC CRL-1650) cells transiently transfected with EST-p91023(B); 100,000 x g supernatant used. Type of series: biochemical. To be noted: compound as sulfate acceptor substrate; estrone 0.01 to 0.1 μM, DHEA 0.0125 to 32 μM. The protocol: (§1) Total reaction assay volume was about 200 μl . […] The tubes were vortexed after each addition.
(§2) Substrate kinetic studies designed to estimate apparent Km values were performed utilizing the EST and DHEA ST activity assays described above and in Example III. Since human liver EST enzyme and DHEA ST enzyme can both catalyze the sulfation of steroids, these studies presented an opportunity to determine apparent Km values of the two enzymes with estrone and DHEA as substrates. Both enzyme preparations were tested with a range of estrone and DHEA concentrations (Table III).
(§3) Apparent Km values were calculated by the method of Wilkinson (Biochem. J., 80, 324-332 (1961)) with a computer program written by Cleland (Nature, 198, 463-465 (1963)).

Series [4] has as its target T3, recombinant human liver DHEA ST enzyme. As to the kind of experiment: Substrate kinetics (apparent Km), COS-1 expressed DHEA ST enzyme. The format is biochemical. Details: made in house; host or cells: COS-1 cells transiently transfected with human liver DHEA ST-p91023(B); 100,000 x g supernatant used. Particulars: compound as sulfate acceptor substrate; estrone 0.2 to 100 μM, DHEA 0.06 to 10 μM. The method, then:
as §1, §2, §3

Series [5] concerns the target T4, protein encoded by the human liver EST cDNA (Homo sapiens, UniProt P49888).
T4 construct: made in house; host or cells: COS-1 (ATCC CRL-1650) cells transiently transfected with EST-p91023(B); 100,000 x g supernatant used
T4 sequence (P49888 1-294): T1 sequence (P49888 1-294)
Nature of the series: ST enzymatic activity after transfection of COS-1 cells with human liver EST cDNA in p91023(B). The format is biochemical. To be noted: for sulfation catalyzed by the protein encoded by the human liver EST cDNA: approximate values, transfected COS-1 cells; for ST enzymatic activity, EST cDNA, Average: average of two experiments; for ST enzymatic activity, EST cDNA, Average / ST enzymatic activity, EST cDNA, Expt. 1: HSS of transfected COS-1 cells. The method, then:
COS-1 (ATCC No. CRL-1650) cells were transfected with an EST cDNA expression construct in the eukaryotic expression vector p91023(B) as well as with vector alone using the DEAE-dextran method (H. Luthman et al., Nucleic Acids Res., 11, 1295-1308 (1983)). Specifically, the COS-1 cells were plated in 100-mm dishes in Dulbecco's modified Eagle's medium (DMEM) supplemented with 10% fetal calf serum (FCS) at a density of 1.2×10^6 cells/dish, and were grown overnight. The EST-p91023(B)construct, a control human liver DHEA ST-p91023(B) construct, p91023(B) with no insert, or only buffer were mixed with DEAE-dextran and DMEM and were added to the cell culture dishes (J. H. McCutchan et al., J. Natl. Cancer Inst., 41, 351 (1968); R. J. Kaufman et al., Mol. Cell. Biol., 2, 946 (1989)). After 1 hour, the DEAE-dextran solution was replaced for 2 minutes by DMEM that contained 10% dimethylsulfoxide (DMSO), followed by 0.1 mM chloroquine in DMEM for 2 hours (H. Luthman et al., Nucleic Acids Res., 11, 1295 (1983)). Cells were then grown for 48 hours in DMEM supplemented with 10% FCS. After harvesting, cell pellets were washed with 5 ml of phosphate buffered saline (PBS) and were homogenized for 30 seconds in 2 ml of 5 mM potassium phosphate buffer, pH 6.5. The homogenates were centrifuged at 12,000-15,000×g for 15 minutes at 4° C., and supernatants were collected and centrifuged at 100,000×g for 1 hour at 4° C. Five μl aliquots of the 100,000×g "high-speed supernatants" (HSS) were assayed for ST enzymatic activities (Example IV).
ST activities were measured in preparations of transfected COS- 1 cells using DHEA, 4- nitrophenol and dopamine, model substrates for DHEA ST, TS PST and TL PST, respectively (Example IV). The assays were performed under optimal conditions for the measurement of these three enzyme activities in human liver preparations (N. R. C. Campbell et al., Biochem. Pharmacol., 36, 1435-1446 (1987); J. S. Hernandez et al., Drug Metab. Dispos., 20, 413-422 (1992), both of which are incorporated herein by reference). The sulfation of estrone was measured using optimal conditions for the assay of EST activity of human EST enzyme (Example III(c)).
Estrone was used as the substrate to determine optimal assay conditions and, subsequently, to characterize the properties of human EST enzyme. […] Mg^2+ is known to increase the activities of several ST enzymes (J. S. Hernandez et al., Drug Metab. Dispos., 20, 413-422 (1992); I. A. Aksoy et al., Druc, Metab. Dispos., 21, 268-276 (1993)). […]

The nature of series [6]: Thermal inactivation of ST activity. The format is physicochemical, human. Particulars: 15 minutes preincubation; mean ±SEM. The protocol:
Aliquots of recombinant COS-1 cell extracts were incubated at 31°, 33°, 35°, 37°, 39°, 41°, 43° or 45° C. for 15 minutes prior to assay to determine thermal inactivation parameters. […] For the thermal inactivation experiment, aliquots of HSS from COS-1 cells transfected with EST cDNA or DHEA ST cDNA were diluted 1:2 (v/v) with 5 mM potassium phosphate buffer, pH 6.5, preincubated at various temperatures for 15 minutes and was then placed on ice. An aliquot of the same preparation was kept on ice as a control. Each aliquot was then diluted further for assay of the ST activity being measured. Values for controls were determined at each temperature studied. Data obtained during thermal inactivation and DCNP inhibition studies were analyzed with the GraphPAD InPlot curve-fitting program (GraphPAD InPlot Software, San Diego, Calif.).

The mark [7] stands for this setting: first EST cDNA column, estrone 0.05 μM, DHEA 5 μM, 4-nitrophenol 4 μM, dopamine 60 μM, 1 unit = 1 nmol sulfated product per hour at 37° C.
[8] abbreviates: second EST cDNA column, same substrate concentrations.

Protocol for human EST enzyme: Estrone was used as the substrate to determine optimal assay conditions and, subsequently, to characterize the properties of human EST enzyme. […] The optimal pH for the measurement of estrone ST activity with the expressed protein was approximately 6.5 in the presence of 8.2 mM potassium phosphate buffer. […] EST activity assays were subsequently performed on crude extracts from recombinant COS-1 cells expressing human EST enzyme using the optimal assay conditions thus identified: at a reaction pH of 6.5 in the presence of 1.25 mM MgCl2 with 0.05 μM estrone as the sulfate acceptor substrate, in 8.2 mM potassium phosphate buffer.

For `[Cl-].[Cl-].[Mg+2]` [Mg^2+, MgCl2], at human EST enzyme (1.25 mM Mg2+, estrone as substrate), the “increase of EST activity” value worked out at 20%.

Turning to `[Cl-].[Na+]` [NaCl], the “increase of EST activity” value in series [1] is on record as 86%. In series [2], the “peak activation of DHEA ST activity” value was found to be 62%.

Usually Km stands for the substrate concentration at which the rate is half of its maximum. Take `C[C@]12CC[C@@H]3c4ccc(O)cc4CC[C@H]3[C@@H]1CCC2=O` [Estrone]: the Km turned out to be 0.17 µM in series [3] and 3.1 µM in series [4]. Moreover, the “sulfotransferase activity relative to other sulfate acceptor substrates” value on human EST enzyme (compared with estradiol-17β, ethinyl estradiol, or DHEA) is listed as “greater sulfotransferase activity”. Besides, the “estrone concentration giving maximal enzymatic activity” value at human EST enzyme (range 0.01 to 0.10 μM tested) was determined as 0.05 µM. In series [5], the “sulfation catalyzed by the protein encoded by the human liver EST cDNA” value (“sulfation catalyzed” below) is recorded as ~ 9 units/mg protein. Besides, the “ST enzymatic activity, EST cDNA, Average” value in series [5] was 8.8 units/mg protein. The “ST enzymatic activity, EST cDNA, Expt. 1” value stood at 6.0 units/mg protein in series [5] (setting [7]) and 11.5 units/mg protein in series [5] (setting [8]).

Regarding `C[C@]12CC[C@H](O)CC1=CC[C@@H]1[C@@H]2CC[C@]2(C)C(=O)CC[C@@H]12` [DHEA, dehydroepiandrosterone], the figures for the Km in series [3] and in series [4] were 0.85 µM and 2.6 µM, respectively. The “sulfation catalyzed” value in series [5] is on record as ~ 2 units/mg protein. Further, in series [5], the “ST enzymatic activity, EST cDNA, Average” value came out at 2.3 units/mg protein. Also, the “ST enzymatic activity, EST cDNA, Expt. 1” value came out at 1.3 units/mg protein in series [5] (setting [7]) and 3.3 units/mg protein in series [5] (setting [8]).

For `NCCc1ccc(O)c(O)c1` [Dopamine, dopamine], in series [5], the “sulfation catalyzed” value was “not” and the “ST enzymatic activity, EST cDNA, Average” value came out at 0.0 units/mg protein. Further, in series [5] (setting [7]), the “ST enzymatic activity, EST cDNA, Expt. 1” value came to 0.0 units/mg protein. Further, the “ST enzymatic activity, EST cDNA, Expt. 1” value in series [5] (setting [8]) was 0.0 units/mg protein.

For the molecule `O=[N+]([O-])c1ccc(O)cc1` [4-Nitrophenol, 4-nitrophenol], in series [5], the “sulfation catalyzed” value is recorded as ~ 5 units/mg protein. The “ST enzymatic activity, EST cDNA, Average” value in series [5] was determined as 5.2 units/mg protein. Besides, the results for the “ST enzymatic activity, EST cDNA, Expt. 1” value in series [5] (setting [7]) and in series [5] (setting [8]) were 3.4 units/mg protein and 6.9 units/mg protein, respectively.

B1: EST enzyme: recombinant human liver estrogen sulfotransferase (SEQ ID NO:2) expressed in COS-1 cells (protein)
chain: T1 sequence (P49888 1-294)
Consider B1, for which, in series [6], the “temperature at which 50% inactivation of activity occurred” value amounted to 38.2±0.12 °C.

Values taken from US5744355A, “cDNA cloning and expression of human liver estrogen sulfotransferase” (Mayo Foundation for Medical Education and Research, priority 1995, dated 1998).
